According to the CheMixHub viscosity set:
Where “and” joins values, the source holds several entries; their conditions need not be identical. Equal values may be shown once. ± gives the uncertainty stated by the source.

What was measured:
[1] = xn = mol fraction of the nth substance listed

c1ccncc1
viscosity
Settings | 293.15 K | 298 K | 298.15 K | 298.25 K | 303.15 K | 308.15 K | 313.15 K | 318.15 K | 323.15 K
100 kPa | 0.9801 ± 0.012 mPa·s | – | 0.9155 ± 0.011 mPa·s | – | 0.8568 ± 0.011 mPa·s | 0.8032 ± 0.01 mPa·s | 0.7546 ± 0.0096 mPa·s | 0.7103 ± 0.0092 mPa·s | 0.6698 ± 0.0088 mPa·s
101 kPa | – | – | – | – | – | 0.76 ± 0.02 mPa·s and 0.7914 ± 0.0073 mPa·s | 0.714 ± 0.007 mPa·s (2×) and 0.724 ± 0.013 mPa·s | 0.6939 ± 0.0067 mPa·s | 0.645 ± 0.0097 mPa·s and 0.6248 ± 0.017 mPa·s
101.3 kPa | – | 0.882 ± 0.012 mPa·s | 0.903 ± 0.024 mPa·s | – | – | 0.75 ± 0.02 mPa·s | – | 0.675 ± 0.018 mPa·s | –
101.33 kPa | – | – | – | 0.88 ± 0.044 mPa·s | 0.828 ± 0.022 mPa·s | 0.78 ± 0.009 mPa·s | 0.8 ± 0.04 mPa·s | 0.66 ± 0.008 mPa·s | –

CCCCCCC(C)O (configuration not stated) + c1ccccc1
viscosity [mPa·s], [1], 101 kPa
Settings | 298.15 K | 303.15 K
x2 = 0.0555 | 5.871 ± 0.031 | 4.689 ± 0.026
x2 = 0.1239 | 5.076 ± 0.028 | 4.101 ± 0.023
x2 = 0.1912 | 4.353 ± 0.024 | 3.577 ± 0.02
x2 = 0.2386 | 3.886 ± 0.022 | 3.224 ± 0.018
x2 = 0.3153 | 3.181 ± 0.018 | 2.703 ± 0.016
x2 = 0.4353 | 2.241 ± 0.014 | 2.018 ± 0.013
x2 = 0.4865 | 1.923 ± 0.012 | 1.764 ± 0.011
x2 = 0.6072 | 1.318 ± 0.01 | 1.264 ± 0.009
x2 = 0.6941 | 1.008 ± 0.008 | 0.986 ± 0.008
x2 = 0.7432 | 0.876 ± 0.008 | 0.876 ± 0.008
x2 = 0.8011 | 0.761 ± 0.008 | 0.754 ± 0.008
x2 = 0.8599 | 0.693 ± 0.007 | 0.667 ± 0.007
x2 = 0.909 | 0.655 ± 0.007 | 0.608 ± 0.007
x2 = 0.9541 | 0.637 ± 0.007 | 0.58 ± 0.007

c1c[nH]cn1 + c1ccccc1
viscosity [mPa·s], [1], 101 kPa
Settings | x1 = 0.003214 | x1 = 0.006433 | x1 = 0.01278 | x1 = 0.03561 | x1 = 0.03951
303.15 K | 0.57 ± 0.018 | 0.578 ± 0.018 | 0.595 ± 0.018 | – | –
323.15 K | – | – | 0.457 ± 0.016 | 0.505 ± 0.017 | 0.513 ± 0.017

c1ccncc1 + Cc1ccccc1C
viscosity [mPa·s], [1], 101 kPa
Settings | x2 = 0.1002 | x2 = 0.2001 | x2 = 0.2999 | x2 = 0.3993 | x2 = 0.4968 | x2 = 0.6002 | x2 = 0.6992 | x2 = 0.7985 | x2 = 0.8945
293.15 K | 0.9083 ± 0.013 | 0.8811 ± 0.013 | 0.8575 ± 0.012 | 0.8434 ± 0.012 | 0.8268 ± 0.012 | 0.806 ± 0.012 | 0.7925 ± 0.011 | 0.7798 ± 0.011 | 0.7769 ± 0.011
303.15 K | 0.7933 ± 0.011 | 0.7696 ± 0.011 | 0.7498 ± 0.011 | 0.7375 ± 0.011 | 0.721 ± 0.011 | 0.7069 ± 0.01 | 0.6976 ± 0.01 | 0.6881 ± 0.01 | 0.6804 ± 0.01
313.15 K | 0.7 ± 0.01 | 0.6779 ± 0.01 | 0.6586 ± 0.0098 | 0.6456 ± 0.0097 | 0.63 ± 0.0095 | 0.6195 ± 0.0094 | 0.6097 ± 0.0093 | 0.6015 ± 0.0092 | 0.595 ± 0.0091
323.15 K | 0.6145 ± 0.0093 | 0.5949 ± 0.0091 | 0.5776 ± 0.0089 | 0.5654 ± 0.0088 | 0.5525 ± 0.0086 | 0.5433 ± 0.0085 | 0.5347 ± 0.0084 | 0.528 ± 0.0083 | 0.5228 ± 0.0082

c1c[nH]cn1 + CC(=O)O
[1], 101 kPa, x1 = 0.5
Settings | viscosity [mPa·s]
303.15 K | 54 ± 10
323.15 K | 20

Cl.NNC(N)=O + O
viscosity [mPa·s], [1], 101 kPa
Settings | 293.15 K | 298.15 K | 303.15 K | 308.15 K | 313.15 K | 318.15 K
x1 = 0.000452 | 1.008 ± 0.022 | 0.8953 ± 0.019 | 0.8016 ± 0.017 | 0.7228 ± 0.016 | – | 0.6 ± 0.013
x1 = 0.000904 | 1.014 ± 0.022 | 0.9003 ± 0.019 | 0.8058 ± 0.017 | 0.7263 ± 0.016 | 0.6589 ± 0.014 | 0.6026 ± 0.013
x1 = 0.00135 | – | 0.9052 ± 0.019 | 0.81 ± 0.017 | 0.7299 ± 0.016 | 0.6619 ± 0.014 | 0.6051 ± 0.013
x1 = 0.001798 | – | 0.9101 ± 0.02 | 0.8142 ± 0.018 | – | – | 0.6077 ± 0.013
x1 = 0.002249 | – | 0.915 ± 0.02 | 0.8183 ± 0.018 | 0.737 ± 0.016 | 0.6679 ± 0.014 | 0.6102 ± 0.013
x1 = 0.00269 | 1.037 ± 0.022 | 0.9199 ± 0.02 | 0.8224 ± 0.018 | 0.7404 ± 0.016 | 0.6708 ± 0.015 | 0.6127 ± 0.013
x1 = 0.003585 | 1.049 ± 0.023 | 0.9296 ± 0.02 | 0.8306 ± 0.018 | 0.7475 ± 0.016 | 0.6767 ± 0.015 | 0.6176 ± 0.013
x1 = 0.004482 | 1.06 ± 0.023 | 0.9395 ± 0.02 | 0.8389 ± 0.018 | 0.7543 ± 0.016 | 0.6826 ± 0.015 | 0.6226 ± 0.013
x1 = 0.005372 | 1.072 ± 0.023 | 0.9492 ± 0.021 | 0.8472 ± 0.018 | 0.7612 ± 0.016 | 0.6884 ± 0.015 | 0.6275 ± 0.013
x1 = 0.006264 | 1.083 ± 0.023 | 0.959 ± 0.021 | 0.8554 ± 0.018 | 0.7682 ± 0.017 | 0.6944 ± 0.015 | 0.6324 ± 0.014
x1 = 0.007149 | 1.095 ± 0.024 | 0.9687 ± 0.021 | 0.8637 ± 0.019 | 0.775 ± 0.017 | 0.7001 ± 0.015 | 0.6373 ± 0.014

CCCCCCn1cc[n+](C)c1.[Cl][Fe-]([Cl])([Cl])[Cl] + CCOC(C)=O
viscosity [mPa·s], [1], 101 kPa
Settings | x1 = 0.093 | x1 = 0.1851 | x1 = 0.2815 | x1 = 0.377 | x1 = 0.4719 | x1 = 0.5799 | x1 = 0.6752 | x1 = 0.7764 | x1 = 0.8869
293.15 K | 1.14 ± 0.05 | 2.3 ± 0.09 | 4.29 ± 0.18 | 7.45 ± 0.31 | 11.71 ± 0.48 | 18.13 ± 0.75 | 26.64 ± 1.1 | 36.57 ± 1.5 | 51.89 ± 2.1
298.15 K | 1.07 ± 0.04 | 2.11 ± 0.09 | 3.87 ± 0.16 | 6.62 ± 0.27 | 10.22 ± 0.42 | 15.53 ± 0.64 | 22.42 ± 0.93 | 30.27 ± 1.3 | 42.15 ± 1.8
303.15 K | 1.01 ± 0.04 | 1.95 ± 0.08 | 3.51 ± 0.14 | 5.93 ± 0.24 | 9.02 ± 0.37 | 13.48 ± 0.56 | 19.08 ± 0.79 | 25.46 ± 1.1 | 34.86 ± 1.5
308.15 K | 0.95 ± 0.04 | 1.8 ± 0.07 | 3.2 ± 0.13 | 5.34 ± 0.22 | 8.01 ± 0.33 | 11.79 ± 0.49 | 16.45 ± 0.68 | 21.68 ± 0.9 | 29.26 ± 1.2
313.15 K | 0.89 ± 0.04 | 1.68 ± 0.07 | 2.93 ± 0.12 | 4.84 ± 0.2 | 7.18 ± 0.3 | 10.4 ± 0.43 | 14.33 ± 0.59 | 18.64 ± 0.77 | 24.83 ± 1
318.15 K | 0.85 ± 0.04 | 1.57 ± 0.06 | 2.7 ± 0.11 | 4.42 ± 0.18 | 6.46 ± 0.27 | 9.26 ± 0.38 | 12.6 ± 0.52 | 16.23 ± 0.67 | 21.38 ± 0.89
323.15 K | 0.8 ± 0.03 | 1.47 ± 0.06 | 2.5 ± 0.1 | 4.05 ± 0.17 | 5.85 ± 0.24 | 8.3 ± 0.34 | 11.15 ± 0.46 | 14.24 ± 0.59 | 18.51 ± 0.77

CCCCCCCCCC(=O)O + CC(C)[C@@H]1CC[C@@H](C)C[C@H]1O
viscosity [mPa·s], [1]
Settings | 293.15 K | 298 K | 298.15 K | 303.15 K | 308.15 K | 313.15 K | 318.15 K | 323.15 K
100 kPa, x1 = 0.333 | 28.37 ± 0.69 | – | 21.15 ± 0.53 | 16.15 ± 0.4 | 12.59 ± 0.31 | 10 ± 0.24 | 8.08 ± 0.19 | 6.63 ± 0.16
100 kPa, x1 = 0.4 | 24.68 ± 0.23 | – | 18.85 ± 0.17 | 14.7 ± 0.14 | 11.68 ± 0.11 | 9.43 ± 0.09 | 7.73 ± 0.07 | 6.42 ± 0.06
100 kPa, x1 = 0.5 | 22 ± 2.2 | – | 17.5 ± 1.8 | 13.5 ± 1.4 | 11 ± 1.1 | 9 ± 0.9 | 7.5 ± 0.8 | 6.3 ± 0.6
101 kPa, x2 = 0.333 | – | 16.3 ± 0.7 | – | – | – | – | – | –
